Reference: patent US20080096967A1, “Formulations for Injection of Catecholic Butanes, Including Ndga Compounds, Into Animals” (priority 2005, published 2008)

Assays:
[1] = tested on: Beagle dogs; conditions: dog, in vivo
Procedure: A single male dog was administered M4N (12.5 mg/mL) in 20% HP-β-CD/50% PEG 300 via IV infusion (10 mL/kg/hour). Increased pressure in the infusion line and test formulation leakage from the syringe occurred. […] Because the observations were considered severe, the animal was considered moribund and scheduled for euthanization.
The dog recovered within 1 hour and 15 minutes of dosing and presented no continued or additional adverse clinical signs.
An additional male and female were dosed at 150 mg/kg and then at 125 mg/kg. […] Both animals recovered within 1 hour of dosing and no additional important clinical signs were subsequently noted.
Two extra (naïve) dogs were added to the study design and dosed at 75 mg/kg/day at an infusion rate of 5 mL/kg/hour, for a total of 12 doses in a 13-day interval. […] Clinical observations included soft feces in the male and frothy white emesis in the female; these findings were infrequent or isolated incidences and are considered unrelated to treatment. […] Both dogs recovered from any noted clinical signs within 1 hour of dosing. […] No other treatment-related observations were noted.

[2] = Solubility of M4N in water-soluble organic solvents (Table 20, visual inspection); assay type: physicochemical
Procedure: A 100 mL solution of M4N at a concentration of about 25 mg/mL in PEG 300 was made as follows. About 100 mL of PEG 300 were added to a glass beaker containing a stir bar. The beaker was placed on a magnetic plate and the stir bar was set to stir at medium speed. About 2.5 g of M4N were slowly added to the PEG 300 in the center of the beaker with the aid of a spatula to prevent M4N from sticking to the beaker wall. The M4N/PEG 300 mixture was stirred for 24 hr or until all M4N had dissolved or was uniformly suspended without any clumps being present. The M4N/PEG 300 mixture was optionally heated at about 60° C. for about 30 min. (or longer if a larger volume of solution was desired, for example, 1 hr at 60° C. for 500 mL of the M4N/PEG 300 mixture), or longer as needed to ensure complete dissolution of M4N. […] If crystals formed, the M4N/PEG 300 solution could be heated again at 60° C. for about 1 hr, with stirring, on a hot magnetic plate until all M4N was dissolved back in solution. The final M4N/PEG 300 solution was stored at room temperature and was kept protected from light. This process may be scaled up or down to obtain the requisite volume or concentration of M4N. Formulations containing M4N in other PEGs may be similarly made, such as, for example, by substituting PEG 300 in the process described above with PEG 400 or PEG 400 monolaurate.
This process may be scaled up or down to obtain the requisite volume or concentration of M4N and the heating temperature may be increased or decreased to achieve dissolution of M4N. Formulations containing M4N in other water-insoluble lipids combined with non-ionic surfactants, ionic surfactants or water-soluble organic solvents may be similarly made, such as, for example, by substituting sesame oil or Tween® 20 in the process described above with corn oil, olive oil, soybean oil, peppermint oil, Tween® 80, d-alpha-tocopheryl polyethylene glycol 1000 succinate (TPGS), lecithin, PEG 300, PEG 400, PEG 400 monolaurate, glycerol, polyvinylpyrrolidone (“PVP”), propylene glycol (“PG”), or other solubilizing agents, and combinations thereof.

[3] = tested on: healthy male subjects; assay: Human Phase 0 microdose study: tolerability; assay type: in vivo; conditions: oral and intravenous administrations, 100 μg
Procedure: This study was designed to assess the absorption of M4N when administered to humans as a sub-therapeutic dose either as a single oral dose under fed and fasted conditions or a single intravenous dose (Regimens A-C, respectively, in Table 24). The study was a three-way crossover study design in a target population of healthy male subjects and consisted of three study periods of approximately 35 hours duration, each separated by a minimum period of at least 7 days between dosing. During the course of each study period, pharmacokinetic blood samples were taken at specified time points after dosing and urine was collected over pre-defined time intervals. The subjects were able to leave the clinical unit after the completion of study specific procedures at 24 hours post-dose.

Q: Which results are given for `COc1ccc(C[C@@H](C)[C@@H](C)Cc2ccc(OC)c(OC)c2)cc1OC` [Formulation M4N, meso-1,4-bis(3,4-dimethoxyphenyl)-2,3-dimethylbutane]?
A: clinical signs following dosing [1]: uncoordinated/unbalanced movements and frequent urination; notable post dose observation [1]: single observation of red-brown urine in the female on SD 7; time to recovery after dosing [1]: 1 h and 0.25 h; Dissolution After Heating ([2]; 40% Propylene Glycol, 10% Ethanol, M4N 10 mg/mL, temperature not given): N; Stability Time at Room Temperature ([2]; Ethanol 100%, M4N 1 mg/mL): >3 days; Dissolution After Heating ([2]; Ethanol 100%, M4N 10 mg/mL, heating at 37° C.): N at 37 °C; Dissolution After Heating ([2]; Glycerol 100%, M4N 1 mg/mL, heating at 70° C.): Y at 70 °C; Dissolution After Heating ([2]; Glycerol 100%, M4N 10 mg/mL, heating at 70° C.): Y at 70 °C; Dissolution After Heating ([2]; Glycerol 100%, M4N 20 mg/mL, heating at 70° C.): Y at 70 °C; Dissolution After Heating ([2]; PEG 300 33%, M4N 10 mg/mL, heating at 50° C.): N at 50 °C; Stability Time at Room Temperature ([2]; PEG 300 100%, M4N 25 mg/mL): <7 days; Dissolution After Heating ([2]; PEG 300 100%, M4N 25 mg/mL, heating at 50° C.): Y at 50 °C; Stability Time at Room Temperature ([2]; PEG 300 100%, M4N 30 mg/mL): <3 days; Dissolution After Heating ([2]; PEG 300 100%, M4N 30 mg/mL, heating at 50° C.): Y at 50 °C; Stability Time at Room Temperature ([2]; PEG 300 100%, M4N 40 mg/mL): <1 days; Dissolution After Heating ([2]; PEG 300 100%, M4N 40 mg/mL, heating at 50° C.): Y at 50 °C; Stability Time at Room Temperature ([2]; PEG 300 100%, M4N 50 mg/mL): <1 days; Dissolution After Heating ([2]; PEG 300 100%, M4N 50 mg/mL, heating at 60° C.): Y at 60 °C; Dissolution After Heating ([2]; PEG 300 100%, M4N 100 mg/mL, heating at 60° C.): Y at 60 °C; Dissolution After Heating ([2]; PEG 400 5%, M4N 10 mg/mL, heating at 50° C.): N at 50 °C; Stability Time at Room Temperature ([2]; PEG 400 100%, M4N 25 mg/mL): <7 days; Dissolution After Heating ([2]; PEG 400 100%, M4N 25 mg/mL, heating at 50° C.): Y at 50 °C; Stability Time at Room Temperature ([2]; PEG 400 100%, M4N 30 mg/mL): <3 days; Dissolution After Heating ([2]; PEG 400 100%, M4N 30 mg/mL, heating at 50° C.): Y at 50 °C; Stability Time at Room Temperature ([2]; PEG 400 100%, M4N 40 mg/mL): <1 days; Dissolution After Heating ([2]; PEG 400 100%, M4N 40 mg/mL, heating at 50° C.): Y at 50 °C; Stability Time at Room Temperature ([2]; PEG 400 100%, M4N 50 mg/mL): <1 days; Dissolution After Heating ([2]; PEG 400 100%, M4N 50 mg/mL, heating at 60° C.): Y at 60 °C; Dissolution After Heating ([2]; PEG 400 100%, M4N 100 mg/mL, heating at 60° C.): Y at 60 °C; Dissolution After Heating ([2]; PEG 400 monolaurate 100%, M4N 20 mg/mL, heating at 50° C.): Y at 50 °C; Dissolution After Heating ([2]; PEG 400 monolaurate 100%, M4N 50 mg/mL, heating at 50° C.): Y at 50 °C; Dissolution After Heating ([2]; PVP 15%, M4N 1 mg/mL, heating at 90° C.): N at 90 °C; Dissolution After Heating ([2]; PVP 15%, M4N 10 mg/mL, heating at 90° C.): N at 90 °C; Stability Time at Room Temperature ([2]; Propylene Glycol 100%, M4N 1 mg/mL): <1 days; Dissolution After Heating ([2]; Propylene Glycol 100%, M4N 1 mg/mL, heating at 55° C.): Y at 55 °C; Stability Time at Room Temperature ([2]; Propylene Glycol 100%, M4N 10 mg/mL): <1 days; Dissolution After Heating ([2]; Propylene Glycol 100%, M4N 10 mg/mL, heating at 55° C.): Y at 55 °C; Stability Time at Room Temperature ([2]; Propylene Glycol 100%, M4N 20 mg/mL): <1 days; Dissolution After Heating ([2]; Propylene Glycol 100%, M4N 20 mg/mL, heating at 55° C.): Y at 55 °C; adverse events [3]: no serious or severe adverse events; tolerability of study formulations [3]: well tolerated
